Assay: Storage stability test of blend formulation (α-lipoic acid content)
Format: physicochemical
Conditions: absence of air and light
Procedure: First, a blend formulation of the following composition was produced: […]
50 g of creatine monohydrate; 20 g of citric acid; 5.0 g of sodium carbonate; 15 g of sodium bicarbonate; 5.0 g of lemon aroma; 0.5 g of aspartame; 0.5 g of acesulfame K; 4.0 g of magnesium hydroxide
To this blend were added 0.2% by weight of α-lipoic acid and 1.67% by weight of a racemic α-lipoic acid/α-cyclodextrin complex, respectively. The preparations obtained in each case were packaged in the absence of air and light and stored at 20° C. and 40° C.

O=C(O)CCCCC1CCSS1 (racemic) [ALA, 1,2-dithiacyclopentane-3-valeric acid]
α-Lipoic acid content of the blend (20° C., 1 month): 0.19 % by weight
α-Lipoic acid content of the blend (20° C., 2 months): 0.17 % by weight
α-Lipoic acid content of the blend (20° C., 3 months): 0.16 % by weight
α-Lipoic acid content of the blend (20° C., 6 months): 0.14 % by weight
α-Lipoic acid content of the blend (20° C., 9 months): 0.12 % by weight
α-Lipoic acid content of the blend (20° C., 12 months): 0.1 % by weight
α-Lipoic acid content of the blend (40° C., 1 month): 0.16 % by weight
α-Lipoic acid content of the blend (40° C., 2 months): 0.11 % by weight
α-Lipoic acid content of the blend (40° C., 3 months): 0.09 % by weight
α-Lipoic acid content of the blend (40° C., 6 months): 0.06 % by weight
α-Lipoic acid content of the blend (40° C., 9 months): 0.03 % by weight
α-Lipoic acid content of the blend (40° C., 12 months): 0 % by weight
